According to patent US6413947B1, “Anilide derivative, production and use thereof” (Takeda Chemical Industries, Ltd., priority 1997, dated 2002):
Structures can show the parent of a compound that is named as a salt.

Row | melting point | SMILES
1 | 250 to 251 °C | Cc1ccc(-c2ccc3c(c2)C=C(C(=O)Nc2ccc(CS(=O)(=O)C4CCCCC4)cc2)CCO3)cc1 [Compound 107, N-(4—(cyclohexylsulfonylmethyl)phenyl)-7—(4-methylphenyl)-2,3-dihydro-1-benzoxepine-4-carboxamide]
2 | 142 to 143 °C | Cc1ccc(-c2cccc(/C=C/C(=O)Nc3ccc(CN4CCCCC4CCO)cc3)c2)cc1 (stereo not drawn) [Compound 69, (E)-N-[4-[2—(2-hydroxyethyl)piperidinomethyl]phenyl]-3—(4-methylphenyl)cinnamamide]
3 | 194 to 195 °C | CN(Cc1ccc(NC(=O)C2=Cc3cc(-c4ccsc4)ccc3OCC2)cc1)C1CCOCC1 [Compound 291, N-[4-[N-methyl-N-(tetrahydropyran-4-yl)aminomethyl]phenyl]-7-(3-thienyl)-2,3-dihydro-1-benzoxepine-4-carboxamide]
4 | 132 to 134 °C | Cc1ccc(-c2cccc(/C=C/C(=O)Nc3ccc(CN4CCCC(O)C4)cc3)c2)cc1 (stereo not drawn) [Compound 67, (E)-N-[4—(3-hydroxypiperidino-methyl)phenyl]-3—(4-methylphenyl)cinnamamide]
5 | 254 °C (dec.) | Cc1ccc(-c2ccc3c(c2)C=C(C(=O)Nc2ccc(-c4cccc[n+]4[O-])cc2)CCO3)cc1 [Compound 160, N-[4—(1-oxidopyridin-2-yl)phenyl]-7—(4-methylphenyl)-2,3-dihydro-1-benzoxepine-4-carboxamide]
6 | 162 to 164 °C | COc1ccc(-c2ccc3c(c2)C=C(C(=O)Nc2ccc(CN(C)C4CCOCC4)cc2)CCS3)cc1 [Compound 282, 7-(4-methoxyphenyl)-N-[4-[N-methyl-N-(tetrahydropyran-4-yl)aminomethyl]phenyl]-2,3-dihydro-1-benzothiepine-4-carboxamide]
7 | 191 to 192 °C | CN(Cc1ccc(NC(=O)C2=Cc3cc(-c4ccc(Cl)cc4)ccc3OCC2)cc1)C1CCOCC1 [Compound 181, N-[4-[N-methyl-N-(tetrahydropyran-4-yl)aminomethyl]-phenyl]-7—(4-chlorophenyl)-2,3-dihydro-1-benzoxepine-4-carboxamide]
8 | 196 to 197 °C | Cc1ccc(-c2ccc3c(c2)C=C(C(=O)Nc2ccc(C[N+]4(C)CCCCC4)cc2)CCS3)cc1 (as salt: iodide) [Compound 94, 1—(N-(7—(4-methylphenyl)-2,3-dihydro-1-benzo-thiepine-4-carbonyl)-4-aminobenzyl)-1-methyl-piperidinium iodide]
9 | 240 to 241 °C | Cc1ccc(-c2cccc(/C=C/C(=O)Nc3ccc(-c4cccc[n+]4[O-])cc3)c2)cc1 [Compound 189, (E)-N-[4—(1-oxidopyridin-2-yl)phenyl]-3—(4-methylphenyl)cinnamamide]
10 | 163 to 165 °C | Cc1ccc(-c2cccc(/C=C/C(=O)Nc3ccc(CN(C)CC#N)cc3)c2)cc1 [Compound 64, (E)-N-[4-[N-(cyanomethyl)-N-methylaminomethyl]phenyl]-3—(4-methylphenyl)cinnamamide]
11 | 153 to 154 °C | Cc1ccc(-c2cccc(/C=C/C(=O)Nc3ccc(CN4CCCC(CO)C4)cc3)c2)cc1 (stereo not drawn) [Compound 66, (E)-N-[4-[3—(hydroxy-methyl)piperidinomethyl]phenyl]-3—(4-methylphenyl)cinnamamide]

Further lines, the molecule ahead of its results:

Row | SMILES | melting point
12 | O=C(Nc1ccc(CN2CCCCC2)cc1)C1=Cc2cc(C3CCCCC3)ccc2CC1 [Compound 1, 7-cyclohexyl-N-[4—(piperidinomethyl)-phenyl]-3,4-dihydronaphthalene-2-carboxamide] | 180 to 181 °C
13 | Cc1ccc(-c2ccc3c(c2)C=C(C(=O)Nc2ccc(C(O)c4cccc[n+]4[O-])cc2)C(C)O3)cc1 (stereo not drawn) [Compound 203, N-[4-[hydroxy(1-oxidopyridin-2-yl)-methyl]phenyl]-6—(4-methylphenyl)-2-methyl-2H-1-benzopyran-3-carboxamide] | 230 to 232 °C
14 | Cc1ccc(-c2ccc3c(c2)C=C(C(=O)Nc2ccc(-c4ccccn4)cc2)CCO3)cc1 [Compound 159, N-[4—(2-pyridyl)phenyl]-7—(4-methylphenyl)-2,3-dihydro-1-benzoxepine-4-carboxamide] | 228 to 229 °C
15 | CN(Cc1ccc(NC(=O)C2=Cc3cc(-c4ccc(N5CCOCC5)cc4)ccc3SCC2)cc1)C1CCOCC1 [Compound 285, N-[4-[N-methyl-N-(tetrahydropyran-4-yl)aminomethyl]phenyl]-7-(4-morpholinophenyl)-2,3-dihydro-1-benzothiepine-4-carboxamide] | 255 to 259 °C
16 | Cc1ccc(-c2ccc3c(c2)C=C(C(=O)Nc2ccc(CN4CCCCC4)cc2)CC(c2ccccc2)O3)cc1 (stereo not drawn) [Compound 102, 7—(4-methylphenyl)-2-phenyl-N-(4—(piperidinomethyl)phenyl)-2,3-dihydro-1-benzoxepine-4-carboxamide] | 210 to 211 °C
17 | Cc1ccc(-c2cccc(/C=C/C(=O)Nc3ccc(-c4ccccn4)cc3)c2)cc1 [Compound 188, (E)-N-[4—(2-pyridyl)phenyl]-3—(4-methylphenyl)cinnamamide] | 220 to 222 °C
18 | CN(Cc1ccc(NC(=O)C2=Cc3cc(-c4ccc(C(C)(C)C)cc4)ccc3OCC2)cc1)C1CCOCC1 [Compound 179, N-[4-[N-methyl-N-(tetrahydropyran-4-yl)aminomethyl]phenyl]-7—(4-tert-butylphenyl)-2,3-dihydro-1-benzoxepine-4-carboxamide] | 193 to 194 °C
19 | Cc1ccc(-c2ccc3c(c2)C=C(C(=O)Nc2ccc(C(=O)C4CCCCN4)cc2)CCO3)cc1 (stereo not drawn) [Compound 156, N-(4—(piperidin-2-ylcarbonyl)phenyl)-7—(4-methylphenyl)-2,3-dihydro-1-benzoxepine-4-carboxamide] | 195 to 196 °C (dec.)
20 | Cc1ccc(-c2ccc3c(c2)C=C(C(=O)Nc2ccc(C[N+]4(C)CCCCC4)cc2)CC3)cc1 (as salt: iodide) [Compound 16, 1-methyl-1-[4-[7—(4-methylphenyl)-3,4-dihydronaphthalene-2-carboxamido]benzyl]piperidinium iodide] | 202 to 204 °C
21 | CN(Cc1ccc(NC(=O)C2=Cc3cc(-c4ccc5c(c4)OCO5)ccc3SCC2)cc1)C1CCOCC1 [Compound 286, 7-(3,4-methylenedioxyphenyl)-N-[4-[N-methyl-N-(tetrahydropyran-4-yl)aminomethyl]phenyl]-2,3-dihydro-1-benzothiepine-4-carboxamide] | 193 to 194 °C
22 | Cc1ccc(-c2cc3c(s2)CCCC(C(=O)Nc2ccc(CN(C)C4CCOCC4)cc2)=C3)cc1 [Compound 214, N-[4-[N-methyl-N-(tetrahydropyran-4-yl)aminomethyl]-phenyl]-2—(4-methylphenyl)-7,8-dihydro-6H-cyclohepta-[b]thiophene-5-carboxamide] | 201 to 203 °C
23 | Cc1ccc(-c2ccc3c(c2)C=C(C(=O)Nc2ccc(CN(C)C4CCOCC4)cc2)CC(c2ccccc2)O3)cc1 (stereo not drawn) [Compound 101, 7—(4-methylphenyl)-2-phenyl-N-(4—((N-tetrahydropyran-4-yl-N-methylamino)methyl)phenyl)-2,3-dihydro-1-benzoxepine-4-carboxamide] | 178 to 179 °C
24 | Cc1ccc(-c2ccc3c(c2)C=C(C(=O)Nc2ccc(CN(C)C4CCOCC4)cc2)CCO3)s1 [Compound 290, N-[4-[N-methyl-N-(tetrahydropyran-4-yl)amino-methyl]phenyl]-7-(5-methyl-2-thienyl)-2,3-dihydro-1-benzoxepine-4-carboxamide] | 129 to 130 °C
25 | Cc1ccc(-c2ccc3c(c2)C=C(C(=O)Nc2ccc(CNc4ccccn4)cc2)CCO3)cc1 [Compound 322, N-[4-[(pyrid-2-yl)aminomethyl]phenyl]-7-(4-methylphenyl)-2,3-dihydro-1-benzoxepine-4-carboxamide] | 189 to 190 °C
26 | Cc1ccc(-c2ccc3c(c2)C=C(C(=O)Nc2ccc(C(=O)C4CCCCN4C)cc2)CCO3)cc1 (stereo not drawn) | 162 to 163 °C
27 | Cc1ccc(-c2cccc(/C=C/C(=O)Nc3ccc(CN4CCN(Cc5ccc6c(c5)OCO6)CC4)cc3)c2)cc1 [Compound 57, (E)-N-[4-[1—(3,4-methylenedioxybenzyl)-4-piperazinylmethyl]phenyl]-3—(4-methylphenyl)cinnamamide] | 204 to 207 °C
28 | Cc1ccc(-c2ccc3nc(C)c(C(=O)Nc4ccc(CN(C)C5CCOCC5)cc4)cc3c2)cc1 [Compound 216, N-[4-[N-methyl-N-(tetrahydropyran-4-yl)aminomethyl]phenyl]-6—(4-methylphenyl)-2-methylquinoline-3-carboxamide] | 157 to 160 °C
29 | Cc1ccc(-c2ccc3c(c2)C=C(C(=O)Nc2ccc(CN4CCCCC4)cc2)CC3)cc1 [Compound 14, 7—(4-methylphenyl)-N-[4—(piperidinomethyl)phenyl]-3,4-dihydronaphthalene-2-carboxamide] | 187 to 189 °C
30 | CN(Cc1ccc(NC(=O)C2=Cc3cc(-c4ccc(N5CCCC5)cc4)ccc3OCC2)cc1)C1CCOCC1 [Compound 150, 7—(4—(pyrrolidin-1-yl)phenyl)-N-(4—((N-tetrahydropyran-4-yl-N-methylamino)-methyl)phenyl)-2,3-dihydro-1-benzoxepine-4-carboxamide] | 210 to 211 °C
31 | CCc1ccc(-c2ccc3c(c2)C=C(C(=O)Nc2ccc(CN(C)C4CCOCC4)cc2)CCO3)cc1 [Compound 177, N-[4-[N-methyl-N-(tetrahydropyran-4-yl)aminomethyl]phenyl]-7—(4-ethylphenyl)-2,3-dihydro-1-benzoxepine-4-carboxamide] | 181 to 182 °C
32 | Cc1ccc(-c2ccc3c(c2)C=C(C(=O)Nc2ccc(Cc4ncccc4O)cc2)CCO3)cc1 [Compound 174, N-[4—(3-hydroxypyridin-2-ylmethyl)phenyl]-7—(4-methylphenyl)-2,3-dihydro-1-benzoxepine-4-carboxamide] | 285 to 288 °C
33 | Cc1ccc(-c2ccc3c(c2)C=C(C(=O)Nc2ccc(CNC4CCCCC4)cc2)CCO3)cc1 [Compound 114, N-(4—((cyclohexylamino)methyl)phenyl)-7—(4-methylphenyl)-2,3-dihydro-1-benzoxepine-4-carboxamide] | 183 to 184 °C
